Data on two compounds can be found in US20250065090A1, “DEVICE AND METHOD FOR DELIVERY OF A HEARING DRUG FORMULATION” (Corti Therapeutics Pte. Ltd., priority 2023, published 2025).

Data set [1] has as its system patients receiving cisplatin. The following applies: cited from earlier work.
The test system of data set [2] is cisplatin hearing loss model. The text has this: A solution of freshly prepared sodium thiosulfate solution was loaded in a Hamilton syringe with 26 G needle.
For data set [3] the following is noted: after STS local administration. How it is done:
The time-concentration data was used for calculations. The area under the concentration-time curve (AUC) was determined by the trapezoidal rule. Terminal elimination half-lives of sodium thiosulfate (STS) in perilymph and plasma were determined by use of WIN NONLIN version 2.0 SCI.
30 guinea pigs (250-350 g) without sign of otitis media stayed for ˜3 days acclimation, and ready for PK study. Two anesthesia methods (Zoletil+Xylazine with head up 30 min) and Isoflurane (animal wake up immediately post-injection)] were used. 15 animals for each group.
The subjection guinea pig was anesthetized with zolazepam hydrochloride (Zoletil) and Xylazine or isoflurane inhalation. A solution of freshly prepared sodium thiosulfate solution was loaded in a Hamilton syringe with 26 G needle. The needle was carefully inserted into the left middle ear cavity via the tympanic membrane aiming to cochlear round window. ˜50 μL of dosing solution was injected. The animal was positioned head up for ˜30 min prior to waking up in Zoletil and Xylazine or wake up immediately in isoflurane inhalation.
In C-subgroup of each group, animal blood was systemically drawn (˜100 uL) via bilateral saphenous vein at the multiple time points. Put the collection blood in heparinized tube and stay ˜20 min. ˜50 μL of plasma was collected in microtube and put in −80° C. for future analysis.
STS concentrations were quantitatively analyzed by HPLC using an LC-20AT with a SPD-M20A UV-Vis detector (Shimadzu, Kyoto, Japan) and a LiChrospher RP-select B LiChroCART 250-4 […] column (EMD Millipore Corp, Darmstadt, Germany). All samples were prepared using a method similar to that described by Togawa et al. (1992).

A short description of data set [4]: Calculated osmolarity of STS formulation. The data set is classed as physicochemical. The following applies: aqueous solution of sodium thiosulfate 0.1M to 0.5M.
Data set [5] deals with cisplatin induced hearing loss. The following applies: intratympanic administration, multiple clinical trials; cited from earlier work.
The test system of data set [6] is cisplatin induced hearing loss. The settings on record: intratympanic injection, animal studies; cited from earlier work.
For data set [7], the system named is cisplatin induced hearing loss. The following applies: systemic administration, humans; cited from earlier work.

Where two headings read alike, the source gives them in different places.

On to `N.N.[Cl][Pt][Cl]` [cisplatin, Cisplatin], for which the cure rate in data set [1] (cisplatin based chemotherapy, testicular cancer) was more than 90%. Also, the “patients developing hearing loss” value in data set [1] (human, in vivo) is on record as 60%-80%.
In the case of `O=S([O-])([O-])=S.[Na+].[Na+]` [sodium thiosulfate], the hearing protection result in data set [2] (0.2M concentration, simple aqueous formulation without gelling agent, guinea pig cisplatin hearing loss model) is “full hearing protection”. Moreover, in data set [2] (all groups (2.5%, 5% and 10% sodium thiosulfate), TT or IT injection ~30 min before cisplatin 10 mg/kg iv, ABR 7 days after infusion, treated vs untreated contralateral ear), the “protection of the sodium thiosulfate treated ears (ABR)” value was “nearly completed protection”. Moreover, in data set [3], the “Tmax of systemic thiosulfate” value is “approximately 30 min”, the systemic thiosulfate concentration result is recorded as “increased” and the “time until systemic thiosulfate concentration recovered to normal” value is listed as “around 1 hour”. Also, the calculated osmolarity in data set [4] is given as less than 1500 mOsm/L. In data set [5], the hearing protection entry is given as “no meaningful hearing protection”. The “effect on cisplatin induced hearing loss” value in data set [6] is on record as “prevented the cisplatin induced hearing loss”. In addition, the “effect on cisplatin induced hearing loss” value in data set [7] was “mitigate cisplatin induced hearing loss”.
